# ChEMBL document CHEMBL4028884, “Discovery, Development, and Cellular Delivery of Potent and Selective Bicyclic Peptide Inhibitors of Grb7 Cancer Target” (J Med Chem, 2017)
# Calls of active or inactive are those of the source. The rule behind the calls is not given here. Where a SMILES comes first, the peptide text is derived from it. Bridges are numbered along the chain shown (N, C = ends). [ ]: non-standard residue; d: D form. Phe(4-COOH) = N[C@@H](Cc1ccc(C(=O)O)cc1)C(=O)O
# Assays:
# [1] = target: Growth factor receptor-bound protein 7 (Homo sapiens) (UniProt Q14451); assay: Inhibition of GRB7-HER2 interaction in human SKBR3 cells assessed as HER2 detection in whole cells at 20 uM preincubated for 1 hr followed by fibronectin stimulation measured after 10 mins by Western blot analysis; type: cell-based
# Sequence of Growth factor receptor-bound protein 7 (Homo sapiens) (Q14451 whole entry, the tested form may be a part): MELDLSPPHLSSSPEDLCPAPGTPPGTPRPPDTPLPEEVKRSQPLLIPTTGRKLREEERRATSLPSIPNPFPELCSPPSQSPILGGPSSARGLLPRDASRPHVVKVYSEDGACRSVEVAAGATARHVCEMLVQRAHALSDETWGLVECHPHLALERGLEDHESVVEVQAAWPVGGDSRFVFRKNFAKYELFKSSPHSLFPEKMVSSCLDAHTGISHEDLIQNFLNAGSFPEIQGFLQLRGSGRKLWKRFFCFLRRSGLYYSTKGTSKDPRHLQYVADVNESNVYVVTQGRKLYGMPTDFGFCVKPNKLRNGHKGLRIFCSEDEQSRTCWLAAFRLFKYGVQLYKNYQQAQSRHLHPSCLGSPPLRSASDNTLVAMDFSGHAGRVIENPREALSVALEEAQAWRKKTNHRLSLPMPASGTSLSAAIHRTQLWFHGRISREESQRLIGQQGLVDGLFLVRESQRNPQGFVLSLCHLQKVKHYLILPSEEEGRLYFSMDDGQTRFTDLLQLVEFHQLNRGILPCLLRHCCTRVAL
# [2] = target: Growth factor receptor-bound protein 7 (Homo sapiens) (UniProt Q14451); assay: Inhibition of GRB7-SHC interaction in human SKBR3 whole cells at 20 uM preincubated for 1 hr followed by fibronectin stimulation measured after 10 mins by Western blot analysis; type: cell-based
# [3] = target: Growth factor receptor-bound protein 7 (Homo sapiens) (UniProt Q14451); assay: Inhibition of GRB7-HER2 interaction in human SKBR3 cells assessed as HER2 detection in cell lysates at 20 uM preincubated for 1 hr followed by fibronectin stimulation measured after 10 mins by Western blot analysis; type: cell-based
# [4] = target: Growth factor receptor-bound protein 7 (Homo sapiens) (UniProt Q14451); assay: Inhibition of GRB7-FAK interaction in human SKBR3 cells assessed as FAK detection in cell lysates at 20 uM preincubated for 1 hr followed by fibronectin stimulation measured after 10 mins by Western blot analysis; type: cell-based
# [5] = target: Growth factor receptor-bound protein 7 (Homo sapiens) (UniProt Q14451); assay: Inhibition of GRB7-SHC interaction in human SKBR3 cells assessed as SHC detection in cell lysates at 20 uM preincubated for 1 hr followed by fibronectin stimulation measured after 10 mins by Western blot analysis; type: cell-based
# [6] = target: Growth factor receptor-bound protein 7 (Homo sapiens) (UniProt Q14451); assay: Inhibition of GRB7-FAK interaction in human SKBR3 cells assessed as FAK detection in whole cells at 20 uM preincubated for 1 hr followed by fibronectin stimulation measured after 10 mins by Western blot analysis; type: cell-based
# [7] = target: Growth factor receptor-bound protein 2 (Homo sapiens) (UniProt P62993); assay: Binding affinity to human GST-tagged GRB2-SH2 domain expressed in Escherichia coli BL21(DE3) pLys after 60 to 80 secs in presence of 50 mM phosphate buffer by SPR assay
# [8] = target: T1, Growth factor receptor-bound protein 10 (Homo sapiens) (UniProt Q13322); assay: Binding affinity to human GST-tagged GRB10-SH2 domain (471 to 532 residues) expressed in Escherichia coli BL21(DE3) pLys after 60 to 80 secs in presence of 1 mM phosphate buffer by SPR assay
# T1 sequence (whole entry): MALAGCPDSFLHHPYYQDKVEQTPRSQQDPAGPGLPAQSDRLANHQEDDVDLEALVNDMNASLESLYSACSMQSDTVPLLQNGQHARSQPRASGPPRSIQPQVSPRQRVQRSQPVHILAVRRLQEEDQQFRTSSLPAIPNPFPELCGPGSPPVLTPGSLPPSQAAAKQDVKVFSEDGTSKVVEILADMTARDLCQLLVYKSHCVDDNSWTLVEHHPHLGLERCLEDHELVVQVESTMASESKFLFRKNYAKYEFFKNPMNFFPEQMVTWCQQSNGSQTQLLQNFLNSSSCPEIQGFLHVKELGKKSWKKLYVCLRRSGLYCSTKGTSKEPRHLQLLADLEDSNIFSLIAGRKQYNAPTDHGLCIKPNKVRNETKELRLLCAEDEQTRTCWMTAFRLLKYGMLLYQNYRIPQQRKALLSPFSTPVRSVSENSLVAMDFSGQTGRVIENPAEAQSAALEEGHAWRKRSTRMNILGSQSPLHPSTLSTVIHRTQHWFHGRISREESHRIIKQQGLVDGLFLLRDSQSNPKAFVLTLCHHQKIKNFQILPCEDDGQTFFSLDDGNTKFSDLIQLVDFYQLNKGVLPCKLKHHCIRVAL
# [9] = target: Growth factor receptor-bound protein 2 (Homo sapiens) (UniProt P62993); assay: Binding affinity to human GST-tagged GRB2-SH2 domain expressed in Escherichia coli BL21(DE3) pLys after 60 to 80 secs in presence of 1 mM phosphate buffer by SPR assay
# [10] = target: T1, Growth factor receptor-bound protein 10 (Homo sapiens); assay: Binding affinity to human GST-tagged GRB10-SH2 domain (471 to 532 residues) expressed in Escherichia coli BL21(DE3) pLys after 60 to 80 secs in presence of 50 mM phosphate buffer by SPR assay
inhibition [1],inhibition [2],inhibition [3],inhibition [4],inhibition [5],inhibition [6],Activity [7],Activity [8],Activity [9],Activity [10],Structure (SMILES)
Active,Active,Active,Active,Active,Active,,,,,CC[C@H](C)[C@H](NC(=O)[C@H](CCCCN)NC(=O)[C@@H](NC(=O)[C@H](CCC(N)=O)NC(=O)[C@H](CCCNC(=N)N)NC(=O)[C@@H]1CSCC(=O)N[C@@H](Cc2c[nH]c3ccccc23)C(=O)N[C@@H](Cc2ccccc2)C(=O)N[C@@H](CCC(=O)O)C(=O)NCC(=O)N[C@@H](Cc2ccc(C(=O)O)cc2)C(=O)N[C@@H](CC(=O)O)C(=O)N[C@@H](CC(N)=O)C(=O)N[C@@H]([C@@H](C)O)C(=O)N[C@@H](Cc2ccccc2)C(=O)N2CCC[C@H]2C(=O)N1)[C@@H](C)CC)C(=O)N[C@@H](Cc1c[nH]c2ccccc12)C(=O)N[C@@H](Cc1ccccc1)C(=O)N[C@@H](CCC(N)=O)C(=O)N[C@@H](CC(N)=O)C(=O)N[C@@H](CCCNC(=N)N)C(=O)N[C@@H](CCCNC(=N)N)C(=O)N[C@@H](CCSC)C(=O)N[C@@H](CCCCN)C(=O)N[C@@H](Cc1c[nH]c2ccccc12)C(=O)N[C@@H](CCCCN)C(=O)N[C@@H](CCCCN)C(N)=O
,,,,,,inactive,inactive,inactive,inactive,NC(=O)C[C@@H]1NC(=O)[C@H](CC(=O)O)NC(=O)[C@H](Cc2ccc(O)cc2)NC(=O)CNC(=O)[C@H](CCC(=O)O)NC(=O)[C@H](Cc2ccccc2)NC(=O)[C@@H]2COCc3cn(nn3)CCC[C@H](NC1=O)C(=O)N[C@H](C(N)=O)CSCC(=O)N2
,,,,,,inactive,inactive,inactive,inactive,NC(=O)C[C@@H]1NC(=O)[C@H](CC(=O)O)NC(=O)[C@H](Cc2ccc(O)cc2)NC(=O)CNC(=O)[C@H](CCC(=O)O)NC(=O)[C@H](Cc2ccccc2)NC(=O)[C@@H]2CCC(=O)NCCCC[C@H](NC1=O)C(=O)N[C@H](C(N)=O)CSCC(=O)N2 ({CH2CO}-EFEGYDNKC-NH2; lactam 1-8; thioether N-9)
,,,,,,inactive,inactive,inactive,inactive,NC(=O)C[C@@H]1NC(=O)[C@H](CC(=O)O)NC(=O)[C@H](Cc2ccc(O)cc2)NC(=O)CNC(=O)[C@H](CCC(=O)O)NC(=O)[C@H](Cc2ccccc2)NC(=O)[C@@H]2CCCCNC(=O)CC[C@H](NC1=O)C(=O)N[C@H](C(N)=O)CSCC(=O)N2 ({CH2CO}-KFEGYDNEC-NH2; lactam 1-8; thioether N-9)
Active,Active,Active,Active,Active,Active,,,,,CC[C@H](C)[C@H](NC(=O)[C@H](CCCCN)NC(=O)[C@@H](NC(=O)[C@H](CCC(N)=O)NC(=O)[C@H](CCCNC(=N)N)NC(=O)[C@@H]1CSCC(=O)N[C@H]2CCCCNC(=O)CC[C@H](NC(=O)[C@H](CC(N)=O)NC(=O)[C@H](CC(=O)O)NC(=O)[C@H](Cc3ccc(O)cc3)NC(=O)CNC(=O)[C@H](CCC(=O)O)NC(=O)[C@H](Cc3ccccc3)NC2=O)C(=O)N1)[C@@H](C)CC)C(=O)N[C@@H](Cc1c[nH]c2ccccc12)C(=O)N[C@@H](Cc1ccccc1)C(=O)N[C@@H](CCC(N)=O)C(=O)N[C@@H](CC(N)=O)C(=O)N[C@@H](CCCNC(=N)N)C(=O)N[C@@H](CCCNC(=N)N)C(=O)N[C@@H](CCSC)C(=O)N[C@@H](CCCCN)C(=O)N[C@@H](Cc1c[nH]c2ccccc12)C(=O)N[C@@H](CCCCN)C(=O)N[C@@H](CCCCN)C(N)=O ({CH2CO}-KFEGYDNECRQIKIWFQNRRMKWKK-NH2; lactam 1-8; thioether N-9)
Active,Active,Active,Active,Active,Active,,,,,CC[C@H](C)[C@H](NC(=O)[C@H](CCCCN)NC(=O)[C@@H](NC(=O)[C@H](CCC(N)=O)NC(=O)[C@H](CCCNC(=N)N)NC(=O)[C@@H]1CSCC(=O)N[C@H]2CCCCNC(=O)CC[C@H](NC(=O)[C@H](CC(N)=O)NC(=O)[C@H](CC(=O)O)NC(=O)[C@H](Cc3ccc(C(=O)O)cc3)NC(=O)CNC(=O)[C@H](CCC(=O)O)NC(=O)[C@H](Cc3ccccc3)NC2=O)C(=O)N1)[C@@H](C)CC)C(=O)N[C@@H](Cc1c[nH]c2ccccc12)C(=O)N[C@@H](Cc1ccccc1)C(=O)N[C@@H](CCC(N)=O)C(=O)N[C@@H](CC(N)=O)C(=O)N[C@@H](CCCNC(=N)N)C(=O)N[C@@H](CCCNC(=N)N)C(=O)N[C@@H](CCSC)C(=O)N[C@@H](CCCCN)C(=O)N[C@@H](Cc1c[nH]c2ccccc12)C(=O)N[C@@H](CCCCN)C(=O)N[C@@H](CCCCN)C(N)=O ({CH2CO}-KFEG[Phe(4-COOH)]DNECRQIKIWFQNRRMKWKK-NH2; lactam 1-8; thioether N-9)
